{
  "source": "ChEMBL document CHEMBL6083240",
  "about": "“Design, synthesis and biological evaluation of arylpropylamine derivatives as potential multi-target antidepressants” (Bioorg Med Chem, 2024)",
  "key": {"[1]": {"target": "T1, Sodium-dependent serotonin transporter (Rattus norvegicus, UniProt P31652)", "T1 sequence (P31652 whole entry)": "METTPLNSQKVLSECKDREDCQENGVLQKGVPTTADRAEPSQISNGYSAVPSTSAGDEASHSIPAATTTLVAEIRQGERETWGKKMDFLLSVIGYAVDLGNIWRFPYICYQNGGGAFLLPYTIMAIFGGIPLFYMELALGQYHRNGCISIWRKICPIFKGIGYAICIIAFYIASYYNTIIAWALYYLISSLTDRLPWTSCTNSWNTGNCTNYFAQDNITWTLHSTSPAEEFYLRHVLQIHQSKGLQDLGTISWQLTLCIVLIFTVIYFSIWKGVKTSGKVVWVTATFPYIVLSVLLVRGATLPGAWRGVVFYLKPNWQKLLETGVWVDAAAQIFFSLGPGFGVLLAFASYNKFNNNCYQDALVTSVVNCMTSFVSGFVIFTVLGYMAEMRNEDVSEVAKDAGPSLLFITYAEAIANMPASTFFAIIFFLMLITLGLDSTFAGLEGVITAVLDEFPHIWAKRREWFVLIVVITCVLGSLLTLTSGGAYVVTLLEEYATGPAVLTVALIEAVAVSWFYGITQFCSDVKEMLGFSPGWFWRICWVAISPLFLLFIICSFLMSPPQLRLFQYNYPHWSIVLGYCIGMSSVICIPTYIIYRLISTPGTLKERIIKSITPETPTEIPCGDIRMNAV", "test": "Displacement of [3H]-paroxetine from SERT in rat cerebral cortex incubated for 10 mins by liquid scintillation counting method", "format": "tissue-based"}, "Transporter": {"target": "Transporter (Rattus norvegicus, UniProt Q63380)", "sequence (Q63380 whole entry)": "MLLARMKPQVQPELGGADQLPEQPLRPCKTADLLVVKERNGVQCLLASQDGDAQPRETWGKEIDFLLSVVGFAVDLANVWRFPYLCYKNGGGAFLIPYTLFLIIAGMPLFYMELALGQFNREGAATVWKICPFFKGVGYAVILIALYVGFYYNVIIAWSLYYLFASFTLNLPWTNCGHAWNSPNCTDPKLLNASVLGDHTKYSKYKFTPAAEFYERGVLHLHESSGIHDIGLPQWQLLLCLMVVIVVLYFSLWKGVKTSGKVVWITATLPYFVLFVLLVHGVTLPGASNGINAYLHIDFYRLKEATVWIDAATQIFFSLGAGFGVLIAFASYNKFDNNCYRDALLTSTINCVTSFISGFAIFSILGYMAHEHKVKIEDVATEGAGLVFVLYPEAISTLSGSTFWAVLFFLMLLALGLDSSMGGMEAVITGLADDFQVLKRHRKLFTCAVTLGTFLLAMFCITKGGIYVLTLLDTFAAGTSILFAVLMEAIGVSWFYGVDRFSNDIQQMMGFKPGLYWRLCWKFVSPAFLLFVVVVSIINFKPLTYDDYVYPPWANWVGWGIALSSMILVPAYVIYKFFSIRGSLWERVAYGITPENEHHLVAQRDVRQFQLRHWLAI", "test": "Displacement of [3H]-nisoxetine from NET in rat hippocampal membrane incubated for 8 hrs by liquid scintillation counting method", "format": "cell membranes, Hippocampus"}, "[2]": {"target": "T2, 5-hydroxytryptamine receptor 2C (Rattus norvegicus, UniProt P08909)", "T2 sequence (P08909 whole entry)": "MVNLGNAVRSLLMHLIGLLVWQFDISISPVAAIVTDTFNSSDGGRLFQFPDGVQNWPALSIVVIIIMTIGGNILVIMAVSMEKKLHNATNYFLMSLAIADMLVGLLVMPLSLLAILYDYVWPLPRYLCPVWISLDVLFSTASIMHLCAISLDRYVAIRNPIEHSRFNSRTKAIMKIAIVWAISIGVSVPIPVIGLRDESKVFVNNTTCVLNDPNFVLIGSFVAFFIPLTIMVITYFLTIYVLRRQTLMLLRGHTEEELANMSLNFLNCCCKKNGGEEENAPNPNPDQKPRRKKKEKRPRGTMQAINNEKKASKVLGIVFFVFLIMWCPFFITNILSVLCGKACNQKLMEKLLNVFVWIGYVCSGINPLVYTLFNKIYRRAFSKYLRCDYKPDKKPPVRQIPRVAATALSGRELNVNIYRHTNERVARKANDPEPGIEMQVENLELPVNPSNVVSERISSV", "test": "Displacement of [3H]-mesulergine from 5-HT2C in rat cerebral cortex incubated for 15 mins by liquid scintillation counting method", "format": "tissue-based"}, "[3]": {"target": "T1, Sodium-dependent serotonin transporter", "test": "Antagonist activity at rat cerebral cortex membrane SERT incubated for 10 mins in presence of [3H]5-HT", "format": "cell membranes"}, "[4]": {"target": "Transporter (Rattus norvegicus) (UniProt Q63380)", "sequence (Q63380 as listed by the source)": "as the sequence (Q63380 whole entry) above", "test": "Agonist activity at rat cerebral cortex membrane NET at 10 uM incubated for 10 mins in presence of [3H]-NE relative to control", "format": "cell membranes"}, "[5]": {"target": "T3, 5-hydroxytryptamine receptor 2A (Homo sapiens, UniProt P28223)", "T3 sequence (P28223 whole entry)": "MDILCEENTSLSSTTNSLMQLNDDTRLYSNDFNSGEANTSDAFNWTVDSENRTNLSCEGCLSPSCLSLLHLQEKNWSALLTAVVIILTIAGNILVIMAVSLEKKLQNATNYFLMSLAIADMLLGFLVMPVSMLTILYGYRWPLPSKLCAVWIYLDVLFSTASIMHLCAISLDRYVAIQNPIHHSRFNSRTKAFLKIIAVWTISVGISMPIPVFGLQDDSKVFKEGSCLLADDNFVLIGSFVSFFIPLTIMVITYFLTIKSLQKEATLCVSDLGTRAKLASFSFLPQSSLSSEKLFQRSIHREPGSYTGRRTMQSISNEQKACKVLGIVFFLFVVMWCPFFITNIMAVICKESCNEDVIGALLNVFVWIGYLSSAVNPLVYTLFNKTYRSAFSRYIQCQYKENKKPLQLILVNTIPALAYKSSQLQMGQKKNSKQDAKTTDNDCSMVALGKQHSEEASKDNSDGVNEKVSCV", "test": "Agonist activity at 5-HT2A in HEK293 cells at 10 uM incubated for 60 mins by FLIPR assay relative to control", "format": "functional, cell-based", "conditions": "filed as agonist"}, "[6]": {"target": "T3, 5-hydroxytryptamine receptor 2A", "test": "Antagonist activity at 5-HT2A in HEK293 cells at 10 uM incubated for 60 mins by FLIPR assay relative to control", "format": "cell-based", "design": "scale not given: the % may be the effect or the level left", "conditions": "filed as antagonist"}, "[7]": {"target": "T3, 5-hydroxytryptamine receptor 2A", "test": "Antagonist activity at 5-HT2A in HEK293 cells incubated for 60 mins by FLIPR assay", "format": "cell-based"}, "[8]": {"target": "T4, 5-hydroxytryptamine receptor 2C (Homo sapiens) (UniProt P28335)", "T4 sequence (whole entry)": "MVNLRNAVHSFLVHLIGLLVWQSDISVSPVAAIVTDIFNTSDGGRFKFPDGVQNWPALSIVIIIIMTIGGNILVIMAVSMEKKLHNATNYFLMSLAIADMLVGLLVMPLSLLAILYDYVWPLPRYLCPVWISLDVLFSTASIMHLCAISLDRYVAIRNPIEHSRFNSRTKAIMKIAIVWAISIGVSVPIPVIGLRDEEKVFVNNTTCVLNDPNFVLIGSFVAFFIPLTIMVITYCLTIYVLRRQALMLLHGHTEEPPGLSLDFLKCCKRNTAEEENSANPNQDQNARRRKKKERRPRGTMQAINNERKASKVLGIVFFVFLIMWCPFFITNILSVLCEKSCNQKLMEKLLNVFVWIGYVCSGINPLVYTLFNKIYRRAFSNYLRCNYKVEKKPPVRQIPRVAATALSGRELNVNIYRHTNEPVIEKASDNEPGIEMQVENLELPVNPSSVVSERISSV", "test": "Antagonist activity at 5-HT2C in HEK293 cells at 10 uM incubated for 60 mins by FLIPR assay relative to control", "format": "cell-based", "design": "scale not given: the % may be the effect or the level left", "conditions": "filed as antagonist"}, "Mus musculus [9]": {"tested_on": "Mus musculus", "test": "Antidepressant activity in Kunming mouse chronic unpredictable mild stress model assessed as increase in sucrose preference at 2 to 6 mg/kg, IG measured after 3 weeks", "format": "functional, organism-based", "conditions": "dose 2-6 mg/kg"}, "[10]": {"test": "(§1) In vivo inhibition of 5-HT2A in po dosed DOI-induced Kunming mouse assessed as reduction in head twitch response pretreated for 60 mins followed by DOI induction and measured for 20 mins", "format": "functional", "conditions": "1.333 h, time 80 min"}, "Mus musculus [11]": {"tested_on": "Mus musculus", "test": "as §1", "format": "functional", "conditions": "time 80.0 min"}, "Rattus norvegicus": {"tested_on": "Rattus norvegicus", "test": "Antidepressant activity against ACTH-induced treatment resistant depression in Sprague-Dawley rat model assessed as reduction in immobility time at 20 to 40 mg/kg, IG by forced swimming test", "format": "functional, organism-based", "conditions": "dose 20-40 mg/kg"}, "[12]": {"target": "Sodium-dependent dopamine transporter (Homo sapiens, UniProt Q01959)", "sequence (Q01959 whole entry)": "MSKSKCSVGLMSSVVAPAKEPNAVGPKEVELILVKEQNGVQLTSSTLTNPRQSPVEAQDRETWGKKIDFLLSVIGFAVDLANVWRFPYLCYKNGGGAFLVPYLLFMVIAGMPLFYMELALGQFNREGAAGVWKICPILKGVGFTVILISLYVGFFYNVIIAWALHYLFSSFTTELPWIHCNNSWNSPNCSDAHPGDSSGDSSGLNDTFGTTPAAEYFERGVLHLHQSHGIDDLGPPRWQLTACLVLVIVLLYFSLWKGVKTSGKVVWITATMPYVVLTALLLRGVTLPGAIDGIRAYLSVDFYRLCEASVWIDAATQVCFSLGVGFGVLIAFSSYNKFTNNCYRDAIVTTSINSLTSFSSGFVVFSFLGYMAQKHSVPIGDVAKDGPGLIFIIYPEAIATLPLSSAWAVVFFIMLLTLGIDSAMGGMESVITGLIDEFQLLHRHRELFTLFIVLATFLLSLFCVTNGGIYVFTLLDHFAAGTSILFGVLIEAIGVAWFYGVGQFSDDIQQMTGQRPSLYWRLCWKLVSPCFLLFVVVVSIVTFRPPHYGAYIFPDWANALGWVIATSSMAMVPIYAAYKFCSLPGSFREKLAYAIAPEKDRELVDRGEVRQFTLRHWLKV", "test": "Binding affinity to DAT (unknown origin)"}, "D(1A) dopamine receptor": {"target": "D(1A) dopamine receptor (Homo sapiens, UniProt P21728)", "test": "Binding affinity to D1 receptor (unknown origin)"}, "D(2) dopamine receptor": {"target": "D(2) dopamine receptor (Homo sapiens, UniProt P14416)", "test": "Binding affinity to D2 receptor (unknown origin)"}, "Histamine H3 receptor": {"target": "Histamine H3 receptor (Homo sapiens, UniProt Q9Y5N1)", "sequence (Q9Y5N1 whole entry)": "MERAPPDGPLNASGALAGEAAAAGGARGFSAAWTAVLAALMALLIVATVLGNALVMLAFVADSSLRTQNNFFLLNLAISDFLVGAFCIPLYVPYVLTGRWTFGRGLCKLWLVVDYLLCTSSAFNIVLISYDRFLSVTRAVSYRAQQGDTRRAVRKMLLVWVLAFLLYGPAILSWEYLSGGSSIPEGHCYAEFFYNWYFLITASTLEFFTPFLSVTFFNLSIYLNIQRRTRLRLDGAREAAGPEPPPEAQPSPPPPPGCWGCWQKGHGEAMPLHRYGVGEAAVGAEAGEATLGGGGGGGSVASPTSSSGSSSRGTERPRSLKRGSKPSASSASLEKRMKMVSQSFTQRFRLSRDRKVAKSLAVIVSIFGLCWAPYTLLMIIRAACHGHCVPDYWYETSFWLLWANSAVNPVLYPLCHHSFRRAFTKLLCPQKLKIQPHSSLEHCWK", "test": "Binding affinity to H3 receptor (unknown origin)"}, "Histamine H4 receptor": {"target": "Histamine H4 receptor (Homo sapiens, UniProt Q9H3N8)", "sequence (Q9H3N8 whole entry)": "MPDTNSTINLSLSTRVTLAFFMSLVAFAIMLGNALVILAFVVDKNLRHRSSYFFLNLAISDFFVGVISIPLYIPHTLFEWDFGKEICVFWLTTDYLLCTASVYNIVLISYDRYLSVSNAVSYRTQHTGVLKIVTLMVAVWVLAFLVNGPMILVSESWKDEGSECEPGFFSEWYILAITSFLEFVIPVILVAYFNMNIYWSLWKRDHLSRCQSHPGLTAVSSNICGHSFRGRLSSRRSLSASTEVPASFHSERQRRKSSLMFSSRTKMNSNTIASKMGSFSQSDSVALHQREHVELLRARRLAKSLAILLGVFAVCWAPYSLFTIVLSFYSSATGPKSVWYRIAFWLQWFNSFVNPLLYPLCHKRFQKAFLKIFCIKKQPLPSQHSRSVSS", "test": "Binding affinity to H4 receptor (unknown origin)"}, "[13]": {"target": "Muscarinic acetylcholine receptor M1 (Homo sapiens, UniProt P11229)", "test": "Binding affinity to M1 receptor (unknown origin)"}, "[14]": {"target": "Muscarinic acetylcholine receptor M2 (Homo sapiens, UniProt P08172)", "sequence (P08172 whole entry)": "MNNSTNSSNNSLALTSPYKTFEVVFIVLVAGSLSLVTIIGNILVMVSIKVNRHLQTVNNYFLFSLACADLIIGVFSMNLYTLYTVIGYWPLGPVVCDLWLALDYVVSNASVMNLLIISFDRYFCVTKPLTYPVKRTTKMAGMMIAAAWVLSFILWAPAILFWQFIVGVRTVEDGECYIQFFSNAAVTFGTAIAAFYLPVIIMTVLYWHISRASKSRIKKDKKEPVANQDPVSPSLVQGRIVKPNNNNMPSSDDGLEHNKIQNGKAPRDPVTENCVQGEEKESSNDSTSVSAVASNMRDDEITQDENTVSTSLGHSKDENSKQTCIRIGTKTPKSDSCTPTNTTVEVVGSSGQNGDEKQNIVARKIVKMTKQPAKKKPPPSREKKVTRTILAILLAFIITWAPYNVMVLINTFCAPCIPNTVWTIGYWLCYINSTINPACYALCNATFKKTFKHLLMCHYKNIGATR", "test": "Binding affinity to M2 receptor (unknown origin)"}, "[15]": {"target": "Muscarinic acetylcholine receptor M4 (Homo sapiens, UniProt P08173)", "sequence (P08173 whole entry)": "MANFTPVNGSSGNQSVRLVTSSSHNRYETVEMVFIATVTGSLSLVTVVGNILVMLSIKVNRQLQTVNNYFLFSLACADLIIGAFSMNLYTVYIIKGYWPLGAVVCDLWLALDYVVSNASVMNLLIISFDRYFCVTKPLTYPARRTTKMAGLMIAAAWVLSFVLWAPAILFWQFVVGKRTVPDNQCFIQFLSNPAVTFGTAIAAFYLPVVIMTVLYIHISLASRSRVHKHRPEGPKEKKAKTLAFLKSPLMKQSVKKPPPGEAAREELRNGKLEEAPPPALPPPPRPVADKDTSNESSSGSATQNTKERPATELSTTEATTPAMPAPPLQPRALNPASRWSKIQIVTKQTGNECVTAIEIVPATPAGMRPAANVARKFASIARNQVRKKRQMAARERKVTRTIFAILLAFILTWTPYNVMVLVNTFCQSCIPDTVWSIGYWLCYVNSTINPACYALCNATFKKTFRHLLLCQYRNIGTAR", "test": "Binding affinity to M4 receptor (unknown origin)"}, "[16]": {"target": "Muscarinic acetylcholine receptor M5 (Homo sapiens, UniProt P08912)", "test": "Binding affinity to M5 receptor (unknown origin)"}, "[17]": {"target": "5-hydroxytryptamine receptor 7 (Homo sapiens, UniProt P34969)", "sequence (P34969 whole entry)": "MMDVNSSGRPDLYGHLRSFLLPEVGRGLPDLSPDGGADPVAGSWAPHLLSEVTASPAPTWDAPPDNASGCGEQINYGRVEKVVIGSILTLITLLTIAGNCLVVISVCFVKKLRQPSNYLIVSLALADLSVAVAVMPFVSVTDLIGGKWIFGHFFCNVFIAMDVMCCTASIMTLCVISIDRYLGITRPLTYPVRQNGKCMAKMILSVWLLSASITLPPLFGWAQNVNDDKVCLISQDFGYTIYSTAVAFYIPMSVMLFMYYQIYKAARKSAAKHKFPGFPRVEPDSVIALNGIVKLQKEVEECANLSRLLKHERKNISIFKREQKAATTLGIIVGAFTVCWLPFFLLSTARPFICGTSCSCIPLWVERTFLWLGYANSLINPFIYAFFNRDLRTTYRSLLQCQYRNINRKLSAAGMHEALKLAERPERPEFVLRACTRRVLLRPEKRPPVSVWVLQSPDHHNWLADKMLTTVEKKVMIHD", "test": "Binding affinity to 5-HT7 receptor (unknown origin)"}, "[18]": {"target": "Glutamate [NMDA] receptor", "test": "Binding affinity to NMDA receptor (unknown origin)", "format": "protein-complex assay, Homo sapiens"}, "[19]": {"test": "Cmax in CD1 mouse at 2 mg/kg, iv measured upto 10 hrs by LC-MS analysis", "format": "ADME, organism-based", "conditions": "in vivo"}, "[20]": {"test": "Cmax in CD1 mouse at 15 mg/kg, po measured upto 24 hrs by LC-MS analysis", "format": "ADME, organism-based", "conditions": "in vivo"}, "[21]": {"test": "Tmax in CD1 mouse at 2 mg/kg, iv measured upto 10 hrs by LC-MS analysis", "format": "ADME, organism-based", "conditions": "in vivo"}, "[22]": {"test": "Tmax in CD1 mouse at 15 mg/kg, po measured upto 24 hrs by LC-MS analysis", "format": "ADME, organism-based", "conditions": "in vivo"}, "[23]": {"test": "AUC(0 to infinity) in CD1 mouse at 2 mg/kg, iv measured upto 10 hrs by LC-MS analysis", "format": "ADME, organism-based", "conditions": "in vivo"}, "[24]": {"test": "AUC(0 to infinity) in CD1 mouse at 15 mg/kg, po measured upto 24 hrs by LC-MS analysis", "format": "ADME, organism-based", "conditions": "in vivo"}, "[25]": {"test": "MRTlast in CD1 mouse at 15 mg/kg, po measured upto 24 hrs by LC-MS analysis", "format": "ADME, organism-based", "conditions": "in vivo"}},
  "note": "Activity calls are given as the source filed them. The calls are words filed in the database; no cut-off is given here.",
  "data": [
    {"smiles": "CN(C)CC[C@@H](Oc1cccc2c1OCO2)c1ccc(F)cc1.O=C(O)C(=O)O", "values": [
      {"measurement": "Ki", "setting": "[1]", "result": 5.8, "unit": "nM"},
      {"measurement": "Ki", "setting": "Transporter", "result": 2.3, "unit": "nM"},
      {"measurement": "Ki", "setting": "[2]", "result": 15.7, "unit": "nM"},
      {"measurement": "IC50", "setting": "[3]", "result": 23.2, "unit": "nM"},
      {"measurement": "Activity", "setting": "[4]", "result": 5.6, "unit": "%"},
      {"measurement": "Activity", "setting": "[5]", "result": 103, "unit": "%"},
      {"measurement": "Activity", "setting": "[6]", "result": 100, "unit": "%"},
      {"measurement": "IC50", "setting": "[7]", "result": 36.1, "unit": "nM"},
      {"measurement": "Activity", "setting": "[8]", "result": 99.1, "unit": "%"},
      {"measurement": "Activity", "setting": "Mus musculus [9]", "result": "Active"},
      {"measurement": "ED50", "setting": "[10]", "result": 1.07, "unit": "mg/kg"},
      {"measurement": "Activity", "setting": "Mus musculus [11]", "result": "Dose-dependent-effect"},
      {"measurement": "Activity", "setting": "Rattus norvegicus", "result": "Active"},
      {"measurement": "Ki", "setting": "[12]", "result": "> 1000", "unit": "nM"},
      {"measurement": "Ki", "setting": "D(1A) dopamine receptor", "result": "> 1000", "unit": "nM"},
      {"measurement": "Ki", "setting": "D(2) dopamine receptor", "result": "> 1000", "unit": "nM"},
      {"measurement": "Ki", "setting": "Histamine H3 receptor", "result": "> 1000", "unit": "nM"},
      {"measurement": "Ki", "setting": "Histamine H4 receptor", "result": "> 1000", "unit": "nM"},
      {"measurement": "Ki", "setting": "[13]", "result": 640, "unit": "nM"},
      {"measurement": "Ki", "setting": "[14]", "result": "> 1000", "unit": "nM"},
      {"measurement": "Ki", "setting": "[15]", "result": "> 1000", "unit": "nM"},
      {"measurement": "Ki", "setting": "[16]", "result": "> 1000", "unit": "nM"},
      {"measurement": "Ki", "setting": "[17]", "result": "> 1000", "unit": "nM"},
      {"measurement": "Ki", "setting": "[18]", "result": "> 1000", "unit": "nM"},
      {"measurement": "Cmax", "setting": "[19]", "result": 420, "unit": "ng/mL"},
      {"measurement": "Cmax", "setting": "[20]", "result": 144, "unit": "ng/mL"},
      {"measurement": "Tmax", "setting": "[21]", "result": 4.8, "unit": "min"},
      {"measurement": "Tmax", "setting": "[22]", "result": 30, "unit": "min"},
      {"measurement": "AUC(0-inf)", "setting": "[23]", "result": 310, "unit": "ng·h/mL"},
      {"measurement": "AUC(0-inf)", "setting": "[24]", "result": 474, "unit": "ng·h/mL"},
      {"measurement": "MRT last at 24 h", "setting": "[25]", "result": 3.1, "unit": "h"}
    ]}
  ]
}
